The experiment deals with T1, human fibroblast collagenase (Homo sapiens, UniProt P03956).
T1 construct: made in house; host or cells: human fibroblast (native enzyme by its name)
T1 sequence (P03956 100-469): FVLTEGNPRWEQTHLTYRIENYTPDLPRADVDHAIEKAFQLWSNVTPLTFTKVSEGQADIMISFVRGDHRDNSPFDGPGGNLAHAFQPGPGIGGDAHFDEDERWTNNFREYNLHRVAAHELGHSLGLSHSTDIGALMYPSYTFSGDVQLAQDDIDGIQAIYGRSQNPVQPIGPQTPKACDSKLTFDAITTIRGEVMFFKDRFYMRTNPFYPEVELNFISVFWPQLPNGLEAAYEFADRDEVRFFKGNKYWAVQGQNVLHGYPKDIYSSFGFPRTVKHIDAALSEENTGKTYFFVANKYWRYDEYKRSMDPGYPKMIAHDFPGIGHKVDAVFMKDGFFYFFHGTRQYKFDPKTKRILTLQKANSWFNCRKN
The experiment in a line: Inhibition of Human Fibroblast Collagenase (in vitro, H-Pro-Met-Ala-Leu-Trp-NHCH3 substrate, fluorescamine detection). The settings on record: trypsin-activated enzyme 25 nM; substrate 375 μM; pH 7.5; DMSO not exceeding 5%; 90 minutes; calculated from competitive inhibitor equation; read-out: IC50 (half-maximal inhibitory concentration), Inhibition of Human Fibroblast Collagenase. It counts as biochemical. As to the method:
As stated above the compounds of Formula I are matrix-metalloprotease inhibitors useful in treatment of disease in which matrix-metalloprotease promoted connective tissue remodelling is a causative factor, for example, rheumatoid arthritis and cancer.
Human fibroblast collagenase was purified as described by Fields et al. (The Journal of Biological Chemistry, vol. 262, pp. 6221-6226, 1987), activated with trypsin and used at a concentration of 25 nM. H-Pro-Met-Ala-Leu-Trp-NHCH3 (Netzel-Arnett et al., The Journal of Biological Chemistry, vol 266, pp. 6747-6755, 1991) was used as substrate at a concentration of 375 μM. Fluorescamine was used to detect the products of enzymolysis. […] Product concentrations were measured at intervals throughout the test period (90 minutes). The half-maximal inhibitory concentration (IC50) of the test compound was calculated from the equation for a competitive inhibitor using percent inhibition values between 20% and 80%. The products of parts B and C of example 2 and parts B and C. of example 3 were tested and the following results were obtained.

On to `CC(C)C[C@H](CC(=O)O)C(=O)N[C@@H](Cc1c[nH]c2ccccc12)C(=O)NCCSCCN1CCOCC1` [Example 3B], for which the IC50 was 4500 nM.

Take `CC(C)C[C@H](CC(=O)NO)C(=O)N[C@@H](Cc1c[nH]c2ccccc12)C(=O)NCCSCCN(C)C` [Example 2C]: the IC50 is 20 nM.

Turning to `CC(C)C[C@H](CC(=O)O)C(=O)N[C@@H](Cc1c[nH]c2ccccc12)C(=O)NCCSCCN(C)C` [Example 2B], the IC50 was 8800 nM.

As for `CC(C)C[C@H](CC(=O)NO)C(=O)N[C@@H](Cc1c[nH]c2ccccc12)C(=O)NCCSCCN1CCOCC1` [Example 3C], the IC50 was 15 nM.

These data come from patent US5256657A, “Succinamide derivative matrix-metalloprotease inhibitors” (Sterling Winthrop, Inc., priority 1991, dated 1993).
